This is an account of results in patent US6395775B1, “Combating pest insects” (priority 1995, dated 2002).

Molecules are shown by their SMILES. Entries after “also recorded” stand apart in the source; their conditions may differ.

The test system of one assay is codling moth. The note with it: cited from earlier work; for previous classification of behavioural role: Hathaway et al. 1974, Witzgall et al. 1996a, El-Sayed et al. 1998.
In another assay the test system is C. pomonella males. Put plainly: Wind tunnel experiments, male attraction. It counts as in vivo, Cydia pomonella. As to conditions: codlemone 10 pg/min; E8,Z10-dodecadien-1-ol added at 3% by weight or E8,E10-dodecadienyl acetate at 1% by weight; n=60. The source says:
Tests were done in a wind tunnel with a flight section of 63 by 90 by 200 cm. Dilutions of synthetic compounds in redistilled ethanol were released from an ultrasound evaporator (Gödde et al. 1999). A motor-driven syringe delivered pheromone solutions in ethanol, through micro-tubing, to a glass capillary tube with a 40 μm tip. A piezo-ceramic disc vibrates the tip of the capillary tube at 100-140 kHz, and the pheromone solution evaporates within a few cm of the tip of the capillary.
The main compound codlemone, E8,E10-dodecadien-1-ol, was applied at a rate of 10 pg/min, E8,Z10-dodecadien-1-ol was added at 3% by weight (FIG. 2), E8,E10-dodecadienyl acetate was added at 1% by weight (FIG. 3).
Test sessions started 1 h after lights off and lasted 3 to 4 h. Two-day-old males were placed individually in glass tubes (15 by 2.5 cm) stoppered with gauze, 15 min prior to testing. Males were released individually and were allowed 2 min to respond. Treatments were tested on 4 days with 15 males/day (n=60).
The sequence of male behaviours elicited by perception of sex pheromone includes activation from rest and taking flight, upwind-oriented flight towards the pheromone source, landing at the pheromone source, and display of courtship behaviors close to the source (walking while wingfanning) (FIGS. 2 and 3). These behaviors are followed by mating, if the pheromone source is a calling female.

Assay [1] concerns codling moth, Cydia pomonella. Put plainly: Confusion test in 100 m^2 test areas in a fruit orchard. The assay is classed as in vivo. As to conditions: for confusing effect (males trapped compared with non-treated control square): four dispensing means in the corners, pheromone trap in the center. Here is the method: In another test a confusion test was carried out in 100 m^2 quadratic test areas in a fruit orchard. […] In the respective center of each square, a pheromone trap loaded with the sex pheromone, E8, E10-dodecadien-1-ol of the codling moth, was placed. The confusing effect was calculated as the number of males trapped in the trap compared with the number trapped in a trap in a non-treated control square, i.e. without any behavior antagonist in the respective corner. […] The sex pheromone of the codling moth, the alcohol, is as already mentioned, in commercial use. The inhibiting results are, however, not always satisfying, (Cardé & Minks, 1995, “Control of moth pests by mating disruption. Successes and constraints”, Ann. Rev. Entomol. 49:559-585) in particular not in fruit orchards having high trees and a high population density. […] Probably, the concentration of pheromone from located dispensing means so low there, that the attracting power of the pheromone dominates its confusing effect. Males circulating in the tree tops may also be caught in lower placed traps which indicates a lacking confusing effect. […] Several of the males caught in pheromone traps in such treated squares can be seen flying some meters above the ground and straight into the trap. They never arrived from the top of the trees.

Assay [2] deals with codling moth, Cydia pomonella. Kind of assay: Pheromone trap catch test. The assay is classed as in vivo. The note with it: for behavioural effect on codling moth in pheromone traps: isomer of the acetate combined with E8,E10-dodecadien-1-ol in traps. The source says: Pheromone traps were loaded with the pheromone, E8,E10-dodecadien-1-ol of the codling moth, (FIG. 1A). In other traps the alcohol was combined with the corresponding acetate (FIG. 1B). At a blend of 20% of the acetate the catch decreased to ⅛ (dark column).

Take `C/C=C\C=C\CCCCCCCO` [E8,Z10-dodecadien-1-ol]: the “previous classification of behavioural role” value in the assay on codling moth was “pheromone antagonists”. The “male attraction and close range behaviours at the pheromone source, compared to E8,E10-dodecadien-1-ol alone” value with C. pomonella males was “enhances male attraction and close range behaviours”.

In the case of `C/C=C/C=C/CCCCCCCO` [E8,E10-dodecadien-1-ol], in the assay with codling moth (Roelofs et al (1972)), the “attraction of the codling moth by geometric isomers of the alcohol” value was “very attractive”. Further, the “confusing effect (males trapped compared with non-treated control square)” value in assay [1] is “strong confusing effect”. Besides, in assay [1] (fruit orchards having high trees and a high population density), the “observation of males in the tree tops of treated squares” value is given as “males are attracted to the tree tops”.

Regarding `C/C=C/C=C/CCCCCCCOC(C)=O` [E8,E10-dodecadien-1-yl acetate], the “previous classification of behavioural role” value in the assay on codling moth is listed as “pheromone antagonists”. In addition, the “confusing effect (males trapped compared with non-treated control square)” value in assay [1] was “strong confusing effect”. Besides, in assay [2] (alcohol combined with the acetate, blend of 20% of the acetate), the “catch in pheromone traps, decrease relative to E8,E10-dodecadien-1-ol alone” value is “⅛”. In addition, the “behavioural effect on codling moth in pheromone traps” value (“behavioural effect on codling moth” for short) in assay [2] is “behaviour antagonist”. For the same molecule, the “male attraction and close range behaviours at the pheromone source, compared to E8,E10-dodecadien-1-ol alone” value in the assay with C. pomonella males was “enhances male attraction and close range behaviours; also recorded: acts as an antagonist when present in high amounts, and as a synergist when present in lower amounts”.

On to `CC=CC=CCCCCCCCOC(C)=O` [ZZ], for which the “behavioural effect on codling moth” value in assay [2] (listed as zz-isomer) is listed as “most powerful of the four isomers”.

As for `C/C=C/C=C\CCCCCCCOC(C)=O` [ZE], in assay [2], the “behavioural effect on codling moth” value was “behaviour antagonists”.

Consider `CC=CC=CCCCCCCCOC(C)=O` [EZ], for which the “behavioural effect on codling moth” value in assay [2] is “behaviour antagonists”.
